Values quoted from earlier work as cited in patent US4039736A (Bristol-Myers Company, priority 1976, dated 1977).

Test system: animal tumor systems
Details: reported in literature; cited from earlier work

CC(=O)[C@]1(O)Cc2c(O)c3c(c(O)c2[C@@H](O[C@H]2C[C@H](N)[C@H](O)[C@H](C)O2)C1)C(=O)c1c(O)cccc1C3=O [carminomycin]
activity against animal tumor systems: active against several animal tumor systems
